# From patent publication US8927577B2, “Quinolinyl glucagon receptor modulators” (Pfizer Inc., priority 2011, dated 2015)
# Assays:
# [1] = target: T1, human glucagon receptor (Homo sapiens (Human), UniProt P47871); experiment: Glucagon cAMP Assay; assay type: cell-based; settings: CHOK1 cells stably transfected with the human glucagon receptor; 100 pM glucagon challenge; Kb from IC50 by modified Cheng-Prusoff equation
# Experimental: The Cisbio cAMP detection assay is used to determine the ability of punitive glucagon antagonist to block glucagon induced cAMP production. Potential glucagon antagonists are re-suspended and diluted in 100% DMSO. Prior to use in the Glucagon cAMP assay 100×DMSO compound stocks are diluted 20× with DMEM-F12 media (Invitogen) containing either 0.1% or 4% BSA. 2 uls of 5× compound stocks are spotted into the appropriate wells of low binding white solid bottom 384 well plates (Corning). 2 uls of 5% DMSO or known glucagon antagonist are added to each plate to define the assay window. CHOK1 cells stably transfected with the human glucagon receptor are removed from culture flasks with cell dissociation buffer. Cell pellets are re-suspended, at a concentration of 8.3e^5 cells/ml in DMEM-F12 with or without 4% BSA and 200 uM IBMX. 6 uls of cell suspensions are added to the assay plates. Plates are incubated for 20 min at room temperature prior to the addition of a 100 pM challenge dose of glucagon. On a separate plate glucagon dose response curves are run to determine the EC50 of glucagon. After a 30 min room temperature incubation the reaction is terminated by the addition of lysis buffer containing the cAMP detection reagents. Plates are incubated for an additional 60 min at room temperature prior to being read on the Perkin Elmer fluorescent plate reader. Raw is converted to nM of cAMP produced based on a cAMP standard curve. Converted data is then analyzed using the Pfizer data analysis program. IC50 values are determined from the generated sigmoidal dose response curves. Kb values are the calculated using a modified Cheng-Prusoff equation.
# [2] = target: T1, human glucagon receptor; experiment: Human Glucagon SPA Assay; settings: membrane from chem-1 cells stably transfected with the human glucagon receptor; 125 pM [125I]Glucagon-Cex; Ki by Cheng-Prusoff equation; read-out: Binding Ki
# Experimental: The Glucagon SPA assay is used to determine the ability of test compounds to block the binding of glucagon-cex to the glucagon receptor. Test compounds are re-suspended and serially diluted in 100% DMSO. 1 ul of test compound at the desired concentrations is spotted into the appropriate wells of 96 well low binding white clear bottom plate (Corning). 1 ul of DMSO is spotted into total binding wells. 1 ul of a known glucagon antagonist at a concentration of 20 uM is added to non specific binding wells. […] All assay ingredients with the exception of test compounds are re-suspended in the following buffer; 50 mM Hepes pH 7.4; 5 mM MgCl2; 1 mM CaCl; 5% glycerol and 0.2% BSA. Following a 6-10 hr incubation at room temperature the amount of hot ligand bound to the cell membranes is determined by reading the plates on a Wallac Trilux radioactive emission detector. Data is analyzed using Pfizer's Data analysis program. IC50 values are then determined from the generated sigmoidal dose response curves. Ki values are calculated using Cheng-Prusoff equation.
# T1 sequence (P47871 26-477): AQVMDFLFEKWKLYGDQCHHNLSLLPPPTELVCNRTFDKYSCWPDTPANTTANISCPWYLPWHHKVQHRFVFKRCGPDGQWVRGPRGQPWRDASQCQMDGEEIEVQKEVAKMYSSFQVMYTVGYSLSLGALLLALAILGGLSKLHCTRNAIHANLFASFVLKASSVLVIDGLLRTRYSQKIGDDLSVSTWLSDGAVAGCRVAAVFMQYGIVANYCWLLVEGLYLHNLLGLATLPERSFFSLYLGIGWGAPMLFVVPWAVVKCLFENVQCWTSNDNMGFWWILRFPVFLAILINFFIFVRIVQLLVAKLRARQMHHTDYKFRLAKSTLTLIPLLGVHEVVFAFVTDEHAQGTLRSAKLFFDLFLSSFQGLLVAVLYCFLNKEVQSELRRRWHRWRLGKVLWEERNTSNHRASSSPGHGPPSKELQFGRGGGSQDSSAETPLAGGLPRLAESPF
Compound,Kb [1],Ki [2]
"CC1(C)CC(C(Nc2cnc3cc(F)ccc3c2)c2ccc(C(=O)NCCC(=O)O)cc2)C1 (racemic) [Example 22, (+/−)3-(4-((3,3-dimethylcyclobutyl)(7-fluoroquinolin-3-ylamino)methyl)benzamido)propanoic acid]",47 nM,25 nM
"Cc1cc2ccccc2nc1NC(CC(C)C)c1ccc(C(=O)NCCC(=O)O)cc1 (single isomer, unassigned; isomer 2) [Example 31, 3-(4-(3-methyl-1-((3-methylquinolin-2-yl)amino)butyl)benzamido)propanoic acid, Isomer 2]",1300 nM,1240 nM
"CC(C)CC(Nc1ccc2ccccc2n1)c1ccc(C(=O)NCCC(=O)O)cc1 (racemic) [Example 5, (+/−)-3-{4-[3-methyl-1-(quinolin-2-ylamino)-butyl]-benzoylamino}-propionic acid]",380 nM,452 nM
"Cc1cc2ccccc2nc1NC(CC(C)C)c1ccc(C(=O)NCCC(=O)O)cc1 (single isomer, unassigned; isomer 1) [Example 30, 3-(4-(3-methyl-1-((3-methylquinolin-2-yl)amino)butyl)benzamido)propanoic acid, Isomer 1]",69 nM,76 nM
"Cc1cc2ccc(F)cc2nc1NC(c1ccc(C(=O)NCCC(=O)O)cc1)C1CC(C)(C)C1 (racemic) [Example 21, (+/−)-3-{4-[(3,3-dimethyl-cyclobutyl)-(7-fluoro-3-methyl-quinolin-2-ylamino)-methyl]-benzoylamino}-propionic acid]",160 nM,133 nM
"CC(C)CC(Nc1ncc2ccccc2n1)c1ccc(C(=O)NCCC(=O)O)cc1 (racemic) [Example 14, (+/−)-3-{4-[3-methyl-1-(quinazolin-2-ylamino)-butyl]-benzoylamino}-propionic acid]",3100 nM,–
"Cc1ccc2ncc(NC(CC(C)C)c3ccc(C(=O)NCCC(=O)O)cc3)cc2c1 (stereo not drawn) [Example 27, N-(4-{3-methyl-1-[(6-methylquinolin-3-yl)amino]butyl}benzoyl)-beta-alanine]",250 nM,160 nM
"Cc1c(NC(CC(C)C)c2ccc(C(=O)NCCC(=O)O)cc2)cnc2ccccc12 (stereo not drawn) [Example 18, (+\−)-3-(4-(3-methyl-1-(4-methylquinolin-3-ylamino)butyl)benzamido)propanoic acid]",100 nM,109 nM
"COc1cccc2ccc(NC(CC(C)C)c3ccc(C(=O)NCCC(=O)O)cc3)nc12 (racemic) [Example 6, (+/−)-3-{4-[1-(8-methoxy-quinolin-2-ylamino)-3-methyl-butyl]-benzoylamino}-propionic acid]",620 nM,1860 nM
"O=C(O)CCNC(=O)c1ccc(C(CCC(F)(F)F)Nc2cnc3ccccc3c2)cc1 (racemic) [Example 29, (+/−)-3-(4-(4,4,4-trifluoro-1-(quinolin-3-ylamino)butyl)benzamido)propanoic acid]",930 nM,930 nM
"Cc1cc2ccccc2nc1NC(c1ccc(C(=O)NCCC(=O)O)cc1)C1CC(C)(C)C1 (racemic) [Example 19, (+/−)-3-{4-[(3,3-dimethyl-cyclobutyl)-(3-methyl-quinolin-2-ylamino)-methyl]-benzoylamino}-propionic acid]",64 nM,74 nM
"CCC[C@@H](Nc1nc2ccccc2cc1C)c1ccc(C(=O)NCCC(=O)O)cc1 [Example 1, (+)-3-(4-(1-((3-Methylquinolin-2-yl)amino)butyl)benzamido)propanoic acid]",110 nM,173 nM
"CC(C)CC(Nc1ccc2cc(C(F)(F)F)ccc2n1)c1ccc(C(=O)NCCC(=O)O)cc1 (racemic) [Example 16, (+/−)3-(4-(3-methyl-1-(6-(trifluoromethyl)quinolin-2-ylamino)butyl)benzamido)propanoic acid]",800 nM,91 nM
"CC(C)CC(Nc1ccc2ccc(C(F)(F)F)cc2n1)c1ccc(C(=O)NCCC(=O)O)cc1 (racemic) [Example 15, (+/−)3-(4-(3-methyl-1-(7-(trifluoromethyl)quinolin-2-ylamino)butyl)benzamido)propanoic acid]",1100 nM,479 nM
"CCC[C@H](Nc1nc2ccccc2cc1C)c1ccc(C(=O)NCCC(=O)O)cc1 [Example 2, (−)-3-(4-(1-((3-Methylquinolin-2-yl)amino)butyl)benzamido)propanoic acid]",520 nM,280 nM
"Cc1nc2ccccc2cc1NC(CC(C)C)c1ccc(C(=O)NCCC(=O)O)cc1 (stereo not drawn) [Example 17, (+\−)-3-(4-(3-methyl-1-(2-methylquinolin-3-ylamino)butyl)benzamido)propanoic acid]",880 nM,360 nM
"CC(C)CC(Nc1cnc2ccccc2c1)c1ccc(C(=O)NCCC(=O)O)cc1 (racemic) [Example 3, (+/−)3-{4-[3-methyl-1-(quinolin-3-ylamino)-butyl]-benzoylamino}-propionic acid]",270 nM,240 nM
"Cc1cc(NC(CC(C)C)c2ccc(C(=O)NCCC(=O)O)cc2)nc2ccccc12 (racemic) [Example 10, (+/−)-3-{4-[3-methyl-1-(4-methyl-quinolin-2-ylamino)-butyl]-benzoylamino}-propionic acid]",220 nM,198 nM
"Cc1cc2ccccc2nc1NC(c1ccc(C(=O)NCCC(=O)O)cc1)C1CC(C)(C)C1 (single isomer, unassigned; isomer 1) [Example 32, 3-{4-[(3,3-dimethyl-cyclobutyl)-(3-methyl-quinolin-2-ylamino)-methyl]-benzoylamino}-propionic acid, isomer 1]",23 nM,53 nM
"CC(C)CC(Nc1ncc2ccc(F)cc2n1)c1ccc(C(=O)NCCC(=O)O)cc1 (racemic) [Example 4, (+/−)-3-{4-[1-(7-fluoro-quinazolin-2-ylamino)-3-methyl-butyl]-benzoylamino}-propionic acid]",5100 nM,7360 nM
"CC1(C)CC(C(Nc2cnc3ccc(F)cc3c2)c2ccc(C(=O)NCCC(=O)O)cc2)C1 (racemic) [Example 23, (+/−)3-(4-((3,3-dimethylcyclobutyl)(6-fluoroquinolin-3-ylamino)methyl)benzamido)propanoic acid]",63 nM,50 nM
"CC(C)CC(Nc1cnc2ccccc2n1)c1ccc(C(=O)NCCC(=O)O)cc1 (racemic) [Example 7, (+/−)-3-{4-[3-methyl-1-(quinoxalin-2-ylamino)-butyl]-benzoylamino}-propionic acid]",1000 nM,–
"Cc1cc2ccccc2nc1NC(c1ccc(C(=O)NCCC(=O)O)cc1)C1CC(C)(C)C1 (single isomer, unassigned; isomer 2) [Example 33, 3-{4-[(3,3-dimethyl-cyclobutyl)-(3-methyl-quinolin-2-ylamino)-methyl]-benzoylamino}-propionic acid, isomer 2]",1820 nM,–
"Cc1cc2cc(F)ccc2nc1NC(c1ccc(C(=O)NCCC(=O)O)cc1)C1CC(C)(C)C1 (single isomer, unassigned; isomer 1) [Example 34, 3-{4-[(3,3-dimethyl-cyclobutyl)-(6-fluoro-3-methyl-quinolin-2-ylamino)-methyl]-benzoylamino}-propionic acid, isomer 1]",1180 nM,–
"Cc1cc2ccccc2nc1NC(CC(C)C)c1ccc(C(=O)NCCC(=O)O)cc1 (racemic) [Example 11, (+/−)-3-{4-[3-methyl-1-(3-methyl-quinolin-2-ylamino)-butyl]-benzoylamino}-propionic acid]",91 nM,101 nM
"Cc1cc(NC(CC(C)C)c2ccc(C(=O)NCCC(=O)O)cc2)nc2cc(F)ccc12 (racemic) [Example 12, (+/−)-3-{4-[1-(7-fluoro-4-methyl-quinolin-2-ylamino)-3-methyl-butyl]-benzoylamino}-propionic acid]",310 nM,242 nM
"CC(C)CC(Nc1ccc2cccc(Cl)c2n1)c1ccc(C(=O)NCCC(=O)O)cc1 (racemic) [Example 13, (+/−)-3-{4-[1-(8-chloro-quinolin-2-ylamino)-3-methyl-butyl]-benzoylamino}-propionic acid]",140 nM,199 nM
"CC1(C)CC(C(Nc2cnc3ccccc3c2)c2ccc(C(=O)NCCC(=O)O)cc2)C1 (stereo not drawn) [Example 24, 3-(4-((3,3-dimethylcyclobutyl)(quinolin-3-ylamino)methyl)benzamido)propanoic acid]",140 nM,–
